≈ marks a conversion by molar mass, not a printed value. Like-named read-outs stand apart in the source and are kept apart here.
Experiments:
S. marcescens No. 16-2 = assay: in vitro antibacterial activity, agar plate dilution method (MIC); assay type: cell-based; details: Serratia marcescens, NO.162, 16 h
Outline: (§1)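 Each organism, pre-grown overnight in Mueller Hinton broth, is inoculated at 10^6 CFU/ml onto Mueller Hinton agar series with increasing compound concentration; growth inhibition is scored after 16 h, 37° C., giving MIC (μg/ml).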

P. vulgaris No. 33 = assay: as above; assay type: cell-based; details: Proteus vulgaris, 10^6 CFU/ml
Outline: as §1

M. morganii GN5407 = assay: as above; assay type: cell-based; details: Morganella morganii, GN5407, 16 h, read-out: Minimum Inhibitory Concentration (MIC), *M. morganii GN5407, lactamase-producing strain; 10^6 CFU/ml
Outline: as §1

K. pneumoniae PCI-602 = assay: as above; assay type: cell-based; details: Klebsiella pneumoniae, PCI602, 16 h, read-out: Minimum Inhibitory Concentration (MIC), K. pneumoniae PCI-602; 10^6 CFU/ml
Outline: as §1

S. aureus 209P NIHJ-JC1 = assay: as above; assay type: cell-based; details: Staphylococcus aureus, 16 h, read-out: Minimum Inhibitory Concentration (MIC)
Outline: as §1

E. cloacae Nek 39 = assay: as above; assay type: cell-based; details: Enterobacter cloacae, NEK39, 16 h, read-out: Minimum Inhibitory Concentration (MIC), *E. cloacae Nek 39, lactamase-producing strain; 10^6 CFU/ml
Outline: as §1

E. cloacae 963 = assay: as above; assay type: cell-based; details: Enterobacter cloacae, 963, 16 h, read-out: Minimum Inhibitory Concentration (MIC), E. cloacae 963; 10^6 CFU/ml
Outline: as §1

K. oxytoca GN10650 = assay: as above; assay type: cell-based; details: Klebsiella oxytoca, GN10650, 16 h, read-out: Minimum Inhibitory Concentration (MIC), *K. oxytoca GN10650, lactamase-producing strain; 10^6 CFU/ml
Outline: as §1

E. coli GN5482 = assay: as above; assay type: cell-based; details: Escherichia coli, GN5482, 16 h, read-out: Minimum Inhibitory Concentration (MIC)
Outline: as §1

S. marcescens IAM 1184 = assay: as above; assay type: cell-based; details: Serratia marcescens, IAM1184, 16 h, read-out: Minimum Inhibitory Concentration (MIC)
Outline: as §1

P. vulgaris HX-19 = assay: as above; assay type: cell-based; details: Proteus vulgaris, HX19, 16 h, read-out: Minimum Inhibitory Concentration (MIC)
Outline: as §1

E. coli NIHJ JC2 = assay: as above; assay type: cell-based; details: Escherichia coli, NIHJJC2, 16 h, read-out: Minimum Inhibitory Concentration (MIC), E. coli NIHJ JC2, 10^6 CFU/ml, 37° C.
Outline: as §1

K. pneumoniae No. 42 = assay: as above; assay type: cell-based; details: Klebsiella pneumoniae, NO.42, 16 h, read-out: Minimum Inhibitory Concentration (MIC), *K. pneumoniae No. 42, lactamase-producing strain; 10^6 CFU/ml
Outline: as §1

A. calcoaceticus No. 4 = assay: as above; assay type: cell-based, Acinetobacter calcoaceticus; details: Acinetobacter calcoaceticus, NO.4, 16 h, 10^6 CFU/ml
Outline: as §1

E. coli CSH2 (RK1) = assay: microbe, parasite or virus in culture; assay type: cell-based; details: Escherichia coli, 16 h, read-out: Minimum Inhibitory Concentration (MIC), *E. coli CSH2 (RK1), lactamase-producing strain; 10^6 CFU/ml
Outline: as §1

E. coli CSH(RE45) = assay: microbe, parasite or virus in culture; assay type: cell-based; details: Escherichia coli, 16 h, read-out: Minimum Inhibitory Concentration (MIC), *E. coli CSH(RE45), lactamase-producing strain; 10^6 CFU/ml
Outline: as §1

Ps. cepacia 23 = assay: in vitro antibacterial activity, agar plate dilution method (MIC); assay type: cell-based, Pseudomonas cepacia; details: Burkholderia cepacia, 16 h; Ps. cepacia 23; 10^6 CFU/ml; read-out: Minimum Inhibitory Concentration (MIC)
Outline: as §1

Ps. aeruginosa AKR17 = assay: as above; assay type: cell-based, Pseudomonas aeruginosa; details: Pseudomonas aeruginosa, AKR17, 16 h, read-out: Minimum Inhibitory Concentration (MIC), Ps. aeruginosa AKR17; 10^6 CFU/ml
Outline: as §1

Ps. aeruginosa IF03445 = assay: as above; assay type: cell-based, Pseudomonas aeruginosa; details: Pseudomonas aeruginosa, IF03445, 16 h, read-out: Minimum Inhibitory Concentration (MIC), Ps. aeruginosa IF03445; 10^6 CFU/ml
Outline: as §1

Ps. aeruginosa AK 109 = assay: as above; assay type: cell-based, Pseudomonas aeruginosa; details: Pseudomonas aeruginosa, AK109, 16 h, read-out: Minimum Inhibitory Concentration (MIC)
Outline: as §1

[1] = tested on: Enterobacter cloacae GN 5797; assay: β-lactamase inducibility; assay type: cell-based; details: antibiotic at 50, 10 and 1 μg/ml; cephaloridine as substrate
Description: The assay method for induction of β-lactamase by β-latam antibiotics was as follows:
The test organism, Enterobacter cloacae GN 5797, was grown overnight in Mueller Hinton broth (Dlfco Laboratories, Detroit, Mich.) at 37° C. The culture was diluted 10-fold into 20 ml of the flesh medium and incubated with shaking at 37° C. After 2 hours of incubation, antibiotics were added to final concentrations of 50 μg/ml, 10 μg/ml and 1 μg/ml, and the incubation was continued. At 1 hour intervals after the addition of antibiotic, 3 ml of sample was taken, and immediately added with 0.1 ml of 50 mM sodium azide. The cells were harvested and washed with 50 mM phosphate buffer (ph 7.0). The cells were suspended in 5 ml of 50 mM phosphate buffer and disrupted with a sonicater in an ice-water bath. The broken cells were centrifuged at 16,500 G for 40 minutes at 4° C., and the resulting supernatant fluid was used as the crude enzyme. β-Lactamase activity was determined by a sopectrophotometric method (Antmicrob. Agents Chemother. 17, 355-358, 1980) with cephaloridine as substrate. The concentration of protein was determined by the method of Lowry (J. Biol. Chem. 193, 265-275, 1951). […] As a representative example, the compound of EXAMPLE 50 was administered to mice by means of subcutaneous administration, and the concentration in the blood was measured.

[2] = concentration in blood of mice after subcutaneous administration; assay type: in vivo, mice (ddY type, male); details: mouse, sc, 20 mg/kg; for concentration at 0.125 h: 7.5 min; for concentration at 0.25 h: 15 min; for concentration at 0.5 h: 30 min; for concentration at 1 h: 60 min; for concentration at 2 h: 120 min
[3] = read-out: Minimum Inhibitory Concentration (MIC)
[4] = NO.33, 16 h, read-out: Minimum Inhibitory Concentration (MIC), *P. vulgaris No. 33, lactamase-producing strain
[5] = S. aureus 209P NIHJ-JC1, 10^6 CFU/ml, 37° C., 16 hours
[6] = S. marcescens IAM 1184, 10^6 CFU/ml
[7] = read-out: Minimum Inhibitory Concentration (MIC), A. calcoaceticus No. 4

SMILES | MIC (S. marcescens No. 16-2; [3]) [mg/L] | MIC (P. vulgaris No. 33; [4]) [mg/L] | MIC (M. morganii GN5407) [mg/L] | MIC (K. pneumoniae PCI-602) [mg/L] | MIC (S. aureus 209P NIHJ-JC1; [5]) [mg/L] | MIC (E. cloacae Nek 39) [mg/L] | MIC (E. cloacae 963) [mg/L] | MIC (K. oxytoca GN10650) [mg/L] | MIC (E. coli GN5482) [mg/L] | MIC (S. marcescens IAM 1184; [6]) [mg/L] | MIC (P. vulgaris HX-19; P. vulgaris HX-19, 10^6 CFU/ml) [mg/L] | MIC (E. coli NIHJ JC2) [mg/L] | MIC (K. pneumoniae No. 42) [mg/L] | MIC (E. coli CSH2 (RK1)) [mg/L] | MIC (E. coli CSH(RE45)) [mg/L] | MIC (Ps. cepacia 23) [mg/L] | MIC (Ps. aeruginosa AKR17) [mg/L] | MIC (Ps. aeruginosa IF03445) [mg/L] | β-lactamase inducibility [1] | MIC (A. calcoaceticus No. 4; [7]) [mg/L] | further results
CC(C)(O/N=C(\C(=O)N[C@@H]1C(=O)N2C(C(=O)O)=C(CSc3nnc(-c4ccc(O)c(O)c4)o3)CS[C@H]12)c1csc(N)n1)C(=O)O [Ex. 11, disodium 7β-[2-(2-aminothiazol-4-yl)-(1-carboxylate-1-methylethoxyimino)acetamido]-3-[5(3,4-dihydroxyphenyl)-1,3,4-oxadiazol-2-yl]thiomethyl-3-cephem-4-carboxylate] | 0.39 | 0.025 | 0.05 | < 0.006 | 25 | 0.05 | 0.025 | 0.0125 | 0.39 | 0.0125 | < 0.006 | 0.1 | 0.025 | < 0.006 | 1.56 | < 0.006 | 1.56 | 0.39 | no substantial β-lactamase-inducing activity was observed |  | MIC (A. calcoaceticus No. 4; A. calcoaceticus No. 4, read-out: Minimum Inhibitory Concentration (MIC)): 0.05 mg/L; MIC (Ps. aeruginosa AK 109; Ps. aeruginosa AK 109, 10^6 CFU/ml): 0.2 mg/L
CC(C)(ON=C(C(=O)NC1C(=O)N2C(C(=O)O)=C(CSc3nc(C(=O)O)c(-c4ccc(O)c(O)c4)s3)CSC12)c1csc(N)n1)C(=O)O (stereo not drawn) [Ex. 50, trisodium 7β-[2-(2-aminothizaol-4-yl)-2-(1-carboxylate-1-methylethoxyimino)acetamido]-3-[4-carboxylate-5-(3,4-dihydroxyphenyl)thiazol-2-yl]-thiomethyl-3-cephem-4-carboxylate] |  |  | 0.025 | < 0.006 | 50 | 0.025 | 0.0125 | 0.025 | 0.39 | 0.025 | < 0.006 | 0.39 | 0.05 | < 0.006 | 0.0125 | < 0.006 | 1.56 | 0.39 |  | 0.1 | MIC (S. marcescens No. 16-2; read-out: Minimum Inhibitory Concentration (MIC), *S. marcescens No. 16-2, lactamase-producing strain, 10^6 CFU/ml): 0.78 mg/L; MIC (P. vulgaris No. 33; 16 h, *P. vulgaris No. 33, lactamase-producing strain, read-out: Minimum Inhibitory Concentration (MIC)): < 0.006 mg/L; concentration at 0.125 h [2]: 60.5 µg/mL; concentration at 0.25 h [2]: 67 µg/mL; concentration at 0.5 h [2]: 52.3 µg/mL; concentration at 1 h [2]: 18.5 µg/mL; concentration at 2 h [2]: 3.1 µg/mL; concentration at 4 h ([2]; 240 min): 0.22 µg/mL; MIC (Ps. aeruginosa AK 109): 0.39 mg/L
CC(C)(O/N=C(\C(=O)N[C@@H]1C(=O)N2C(C(=O)O)=C(CSc3nc4cc(O)c(O)cc4o3)CS[C@H]12)c1csc(N)n1)C(=O)O [Example 76, disodium 7 β-[2-(2-aminothiazol-4-yl)-2-(1-carboxylate-1-methylethoxyimino)acetamido]-3-(5,6-dihydroxybenzoxazol-2-yl) thiomethyl-3-cephem-4-carboxylate] |  |  |  |  |  |  |  |  |  |  |  |  |  |  |  |  |  |  | no substantial β-lactamase-inducing activity was observed |  | 
CC(C)(O/N=C(\C(=O)N[C@@H]1C(=O)N2C(C(=O)[O-])=C(C[n+]3ccccc3)CS[C@H]12)c1csc(N)n1)C(=O)O [ceftazidime, reference compound] | 1.56 (≈ 2.85 µM) | 0.05 (≈ 0.0915 µM) | 0.1 (≈ 0.183 µM) | 0.025 (≈ 0.0457 µM) |  | 1.56 (≈ 2.85 µM) | 0.1 (≈ 0.183 µM) | 0.1 (≈ 0.183 µM) | 1.56 (≈ 2.85 µM) |  |  | 0.1 (≈ 0.183 µM) | 0.39 (≈ 0.714 µM) |  |  |  |  | 1.56 (≈ 2.85 µM) |  | 6.25 (≈ 11.4 µM) | MIC (S. aureus 209P NIHJ-JC1): 6.25 mg/L (≈ 11.4 µM); MIC (S. marcescens IAM 1184): < 0.006 mg/L; MIC (P. vulgaris HX-19): 0.025 mg/L (≈ 0.0457 µM); concentration at 0.125 h [2]: 25.4 µg/mL; concentration at 0.25 h [2]: 24.1 µg/mL; concentration at 0.5 h [2]: 17.3 µg/mL; concentration at 1 h [2]: 3.3 µg/mL; concentration at 2 h [2]: 0.2 µg/mL; MIC (Ps. aeruginosa AK 109): 0.78 mg/L (≈ 1.43 µM)

— US5061794A, “Cephalosporin derivatives, and antibacterial agents” (priority 1986, dated 1991)
